The target of this assay is T1, IRAK4 (Homo sapiens, UniProt Q9NWZ3).
T1 sequence (Q9NWZ3 1-460): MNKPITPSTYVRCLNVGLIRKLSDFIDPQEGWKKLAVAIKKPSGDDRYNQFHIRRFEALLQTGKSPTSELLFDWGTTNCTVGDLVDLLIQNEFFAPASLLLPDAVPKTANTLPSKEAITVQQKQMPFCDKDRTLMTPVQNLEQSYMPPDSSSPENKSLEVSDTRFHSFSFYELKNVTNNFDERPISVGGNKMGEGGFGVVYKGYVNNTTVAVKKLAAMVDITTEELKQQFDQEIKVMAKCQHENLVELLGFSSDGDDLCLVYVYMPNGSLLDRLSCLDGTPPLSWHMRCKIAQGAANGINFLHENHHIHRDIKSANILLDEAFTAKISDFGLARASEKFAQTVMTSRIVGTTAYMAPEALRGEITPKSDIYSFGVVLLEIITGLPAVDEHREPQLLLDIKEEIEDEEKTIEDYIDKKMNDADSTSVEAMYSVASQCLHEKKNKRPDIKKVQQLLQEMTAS
The assay can be described thus: Degradation of IRAK4 in THP1 cells, Western blot. The assay is classed as cell-based. Details: Degradation of IRAK4 in THP1 by compound; host or cells: THP-1. The following applies: THP-1 cells, 24 hours of incubation; for DC50: IRAK4 protein by Western blot, read-out: DC50; for Dmax: maximum degradation rate, read-out: Dmax. The procedure, abridged: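 THP1 cells treated 24 h, lysed; lysates normalised by BCA, 40 μg protein per lane on 10% SDS-PAGE, anti-IRAK4 Western blot with chemiluminescence detection.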
Background: In western blotting, separated proteins are transferred to a membrane and probed.

Structures can show the parent of a compound that is named as a salt.

What is called DC50 is the concentration at which degradation of the target reaches its halfway point. As a reminder, the Dmax is the largest share of the target that was removed. In the case of `NC(=O)c1nn(C2CCC(N3CCN(CC4CCN(c5ccc(NC6CCC(=O)NC6=O)cc5F)CC4)CC3)CC2)cc1NC(=O)c1cccc(C(F)(F)F)n1` (centres unmarked) [Compound A374], the DC50 is < 100 nM and the Dmax was > 60%.
As to `NC(=O)c1nn(-c2ccc(N3CCN(CC4CCN(c5ccc(OC6CCC(=O)NC6=O)cn5)CC4)CC3)cc2)cc1NC(=O)c1cccc(C(F)(F)F)n1` (centres unmarked) [Compound A377, N-(3-Carbamoyl-1-(4-(4-((1-(5-((2,6-dioxopiperidin-3-yl)oxy)pyridin-2-yl)piperidin-4-yl)methyl)piperazin-1-yl)phenyl)-1H-pyrazol-4-yl)-6-(trifluoromethyl)picolinamide], the DC50 was < 100 nM and the Dmax is > 60%.
On the same counts, the results for `NC(=O)c1nn(-c2ccc(N3CCN(C4CCN(c5ccc(C(=O)NC6CCC(=O)NC6=O)cc5F)CC4)CC3)cc2)cc1NC(=O)c1cccc(C(F)(F)F)n1` (centres unmarked) [Compound A378, 1-(4-{4-[1-(4-{[(2,6-Dioxopiperidin-3-yl)amino]carbonyl}-2-fluorophenyl)piperidin-4-yl]piperazin-1-yl}phenyl)-4-({[6-(trifluoromethyl)pyridin-2-yl]carbonyl}amino)pyrazole-3-carboxamide] are < 100 nM and > 60%.
The corresponding values for `NC(=O)c1nn(-c2ccc(N3CCN(C4CCN(c5ccc(C(=O)NC6CCC(=O)NC6=O)nc5)CC4)CC3)cc2)cc1NC(=O)c1cccc(C(F)(F)F)n1` (centres unmarked) [Compound A379, N-(3-Carbamoyl-1-(4-(4-(1-(6-((2,6-dioxopiperidin-3-yl)carbamoyl)pyridin-3-yl)piperidin-4-yl)piperazin-1-yl)phenyl)-1H-pyrazol-4-yl)-6-(trifluoromethyl)picolinamide] are < 100 nM and > 60%.
On the same counts, the results for `Cn1c(=O)n(C2CCC(=O)NC2=O)c2cccc(N3CCC(CN4CCN(C5CCC(n6cc(NC(=O)c7cccc(C(F)(F)F)n7)c(C(N)=O)n6)CC5)CC4)CC3)c21` (centres unmarked) [Compound A380] are < 100 nM and > 60%.
Turning to `N#Cc1cccc(C(=O)Nc2cn(-c3ccc(N4CCN(CC5CCN(c6ccc(NC7CCC(=O)NC7=O)cc6F)CC5)CC4)cc3)nc2C(N)=O)n1` (centres unmarked) [Compound A384, N-(3-Carbamoyl-1-(4-(4-((1-(4-((2,6-dioxopiperidin-3-yl)amino)-2-fluorophenyl)piperidin-4-yl)methyl)piperazin-1-yl)phenyl)-1H-pyrazol-4-yl)-6-cyanopicolinamide], the DC50 was > 1000 nM and the Dmax was < 40%.
The corresponding values for `CC(C)(O)c1nn(-c2ccc(N3CCN(CC4CCN(c5ccc(NC6CCC(=O)NC6=O)cc5F)CC4)CC3)cc2)cc1NC(=O)c1cncc(C#N)c1` (centres unmarked) [Compound A385, 5-Cyano-N-(1-(4-(4-((1-(4-((2,6-dioxopiperidin-3-yl)amino)-2-fluorophenyl)piperidin-4-yl)methyl)piperazin-1-yl)phenyl)-3-(2-hydroxypropan-2-yl)-1H-pyrazol-4-yl)nicotinamide] are > 1000 nM and < 40%.
On the same counts, the results for `CC(C)(O)c1nn(-c2ccc(N3CCN(CC4CCN(c5ccc(NC6CCC(=O)NC6=O)cc5F)CC4)CC3)cc2)cc1NC(=O)c1cccc(C#N)n1` (centres unmarked) [Compound A386, 6-Cyano-N-(1-(4-(4-((1-(4-((2,6-dioxopiperidin-3-yl)amino)-2-fluorophenyl)piperidin-4-yl)methyl)piperazin-1-yl)phenyl)-3-(2-hydroxypropan-2-yl)-1H-pyrazol-4-yl)picolinamide] are > 1000 nM and < 40%.
The corresponding values for `N#Cc1ccnc(C(=O)Nc2cn(-c3ccc(N4CCN(C5CCN(c6ccc(NC7CCC(=O)NC7=O)cc6F)CC5)CC4)cc3)nc2C(N)=O)c1` (centres unmarked) [Compound A387, N-(3-Carbamoyl-1-(4-(4-(1-(4-((2,6-Dioxopiperidin-3-yl)amino)-2-fluorophenyl)piperidin-4-yl)piperazin-1-yl)phenyl)-1H-pyrazol-4-yl)-4-cyanopicolinamide] are > 1000 nM and < 40%.
With `N#Cc1cccc(C(=O)Nc2cn(-c3ccc(N4CCN(C5CCN(c6ccc(NC7CCC(=O)NC7=O)cc6F)CC5)CC4)cc3)nc2C(N)=O)n1` (centres unmarked) [Compound A388, N-(3-Carbamoyl-1-(4-(4-(1-(4-((2,6-Dioxopiperidin-3-yl)amino)-2-fluorophenyl)piperidin-4-yl)piperazin-1-yl)phenyl)-1H-pyrazol-4-yl)-6-cyanopicolinamide], the half-maximal degradation concentration (DC50) is > 1000 nM and the Dmax was < 40%.
On the same counts, the results for `CC(C)(O)c1nn(-c2ccc(N3CCN(C4CCN(c5ccc(NC6CCC(=O)NC6=O)cc5F)CC4)CC3)cc2)cc1NC(=O)c1cncc(C#N)c1` (centres unmarked) [Compound A389, 5-Cyano-N-(1-(4-(4-(1-(4-((2,6-dioxopiperidin-3-yl)amino)-2-fluorophenyl)piperidin-4-yl)piperazin-1-yl)phenyl)-3-(2-hydroxypropan-2-yl)-1H-pyrazol-4-yl)nicotinamide] are > 1000 nM and < 40%.
For `NC(=O)c1nn(-c2ccc(N3CCN(C4CCC5(CC4)CN(c4ccc(N6CCC(=O)NC6=O)cc4)C5)CC3)cc2)cc1NC(=O)c1cccc(C(F)(F)F)n1` [Compound A391, N-(3-Carbamoyl-1-(4-(4-(2-(4-(2,4-dioxotetrahydropyrimidin-1(2H)-yl)phenyl)-2-azaspiro[3.5]nonan-7-yl)piperazin-1-yl)phenyl)-1H-pyrazol-4-yl)-6-(trifluoromethyl)picolinamide], the 50% degradation concentration (DC50) was < 100 nM and the Dmax is > 60%.
The corresponding values for `NC(=O)c1nn(-c2ccc(N3CCN(CC4CC5(CCN(c6ccc(N7CCC(=O)NC7=O)cc6)CC5)C4)CC3)cc2)cc1NC(=O)c1cccc(C(F)(F)F)n1` [Compound A392, N-(3-Carbamoyl-1-(4-(4-((7-(4-(2,4-dioxotetrahydropyrimidin-1(2H)-yl)phenyl)-7-azaspiro[3.5]nonan-2-yl)methyl)piperazin-1-yl)phenyl)-1H-pyrazol-4-yl)-6-(trifluoromethyl)picolinamide] are 100 to 1000 nM and 40 to 60%.
For `NC(=O)c1nn(-c2ccc(N3CCN(C(=O)C4CC5(CCN(c6ccc(N7CCC(=O)NC7=O)cc6)CC5)C4)CC3)cc2)cc1NC(=O)c1cccc(C(F)(F)F)n1` [Compound A394, N-(3-Carbamoyl-1-(4-(4-(7-(4-(2,4-dioxotetrahydropyrimidin-1(2H)-yl)phenyl)-7-azaspiro[3.5]nonane-2-carbonyl)piperazin-1-yl)phenyl)-1H-pyrazol-4-yl)-6-(trifluoromethyl)picolinamide], the DC50 was 100 to 1000 nM and the Dmax was in the range of 40 to 60%.
On the same counts, the results for `NC(=O)c1nn(-c2ccc(N3CCN(CC4CCN(c5ccc(NC6CCC(=O)NC6=O)cn5)CC4)CC3)cc2)cc1NC(=O)c1cccc(C(F)(F)F)n1` (centres unmarked) [Compound A396, N-(3-Carbamoyl-1-(4-(4-((1-(5-((2,6-dioxopiperidin-3-yl)amino)pyridin-2-yl)piperidin-4-yl)methyl)piperazin-1-yl)phenyl)-1H-pyrazol-4-yl)-6-(trifluoromethyl)picolinamide] are < 100 nM and > 60%.
On the same counts, the results for `NC(=O)c1nn(-c2ccc(N3CCN(CCC4CCN(C(=O)c5ccc(F)c(N6CCC(=O)NC6=O)c5)CC4)CC3)cc2)cc1NC(=O)c1cccc(C(F)(F)F)n1` [Compound A402, N-(3-Carbamoyl-1-(4-(4-(2-(1-(3-(2,4-dioxotetrahydropyrimidin-1(2H)-yl)-4-fluorobenzoyl)piperidin-4-yl)ethyl)piperazin-1-yl)phenyl)-1H-pyrazol-4-yl)-6-(trifluoromethyl)picolinamide trifluoroacetate] are < 100 nM and > 60%.
On the same counts, the results for `NC(=O)c1nn([C@H]2CC[C@H](N3CCN(CC4CN(c5ccc(N6CCC(=O)NC6=O)cc5)C4)CC3)CC2)cc1NC(=O)c1cccc(C(F)(F)F)n1` [Compound A403, N-(3-Carbamoyl-1-((1r,4r)-4-(4-((1-(4-(2,4-dioxotetrahydropyrimidin-1(2H)-yl)phenyl)azetidin-3-yl)methyl)piperazin-1-yl)cyclohexyl)-1H-pyrazol-4-yl)-6-(trifluoromethyl)picolinamide] are < 100 nM and 40 to 60%.
Consider `NC(=O)c1nn(-c2ccc(N3CCN(C(=O)C4CN(c5ccc(N6CCC(=O)NC6=O)cc5)C4)CC3)cc2)cc1NC(=O)c1cccc(C(F)(F)F)n1` [Compound A409, N-(3-Carbamoyl-1-(4-(4-(1-(4-(2,4-dioxotetrahydropyrimidin-1(2H)-yl)phenyl)azetidine-3-carbonyl)piperazin-1-yl)phenyl)-1H-pyrazol-4-yl)-6-(trifluoromethyl)picolinamide], for which the DC50 was < 100 nM and the Dmax was > 60%.
On the same counts, the results for `NC(=O)c1nn(-c2ccc(N3CCN(C(=O)C4CN(c5cc(F)c(C6CCC(=O)NC6=O)c(F)c5)C4)CC3)cc2)cc1NC(=O)c1cccc(C(F)(F)F)n1` (centres unmarked) [Compound A411, N-(3-carbamoyl-1-(4-(4-(1-(4-(2,6-dioxopiperidin-3-yl)-3,5-difluorophenyl)azetidine-3-carbonyl)piperazin-1-yl)phenyl)-1H-pyrazol-4-yl)-6-(trifluoromethyl)picolinamide] are < 100 nM and > 60%.
